# Test results: US6890708B2, “Method for improving the quality of sperm for artificial insemination of animals” (priority 2000, dated 2005)
# Legend:
# Assay type in all cases: cell-based, pig
# [1] = system: Polymorphonuclear Neutrophils (PMN); experiment: In vitro phagocytosis of boar sperm by PMN (phagocytosis assay); conditions: for % of phagocytosed sperm: Exp. 1, preincubated 30 min. at 38° C.
# Description: Tyrode's medium was used as described as “standard Tyrode's medium” in […] et al. ([…], Harrison, R A P, Miller, N G A, Topper, E K, and Woelders, H, 1998, Enhanced Binding of Zona Pellucida Proteins to the Acrosomal Region of Intact Boar Spermatozoa in Response to Fertilizing Conditions: A Flow Cytometric Study. […] Serum was prepared from blood collected from 11 primiparous sows, pooled, and frozen in aliquots at -80° C. Per experiment, 20 ml peripheral blood of a single Dutch Landrace sow (each experiment a different sow) was collected in heparinized vacutainers (Venoject, Omnilabo, Breda, The Netherlands). The peripheral blood was subsequently diluted with an equal volume of phosphate buffered saline (PBS). […] The supernatant, including the mononuclear cells at the interface, was removed. The pellet was resuspended in 2 ml of ice-cold distilled water to lyse the erythrocytes. […] The PMNs were pelleted by centrifugation for 10 min at 400×g and the lysis procedure was repeated. […] All cell suspensions were pooled together, mixed well, and subjected to centrifugation. The PMN were resuspended in TM-s with inactivated complement, and the cell concentration was determined using a hemocytometer. The PMN preparation was stored overnight at 4° C. […] The viability, assessed by trypan blue exclusion, was >98%. Semen was obtained from Dutch A.I. stations. Per experiment, semen was used from a single Yorkshire breeding boar (each experiment a different boar). At the AI-station, the semen was diluted to a concentration of approximately 30×10^6 cells/ml in Beltsville Thawing Solution (BTS) (Johnson et al., 1988). The diluted semen was stored at 17° C. for up to 48 hours, until the diluted semen sample was used. […] Aliquots of 80 μl of the PMN suspension (see, PMN isolation and preparation of PMNs) in TM or TM-s, with either intact or inactivated complement, were transferred to a 96-well polystyrene microtest plate. […] The samples were incubated with gentle swirling on a test plate shaker. […] The heparin facilitates dissociation of agglutinated PMNs. The samples were thoroughly mixed, left for 15 min., and mixed again. […] The frozen-thawed semen was taken from a large stock of semen from one ejaculate and washed 3 times in PBS prior to use. […] The mounts enabled observation and counting of fluorescently labeled spermatozoa inside and outside the phagocytes. By focusing at different levels in the mount, spermatozoa that were located above or below the PMN could be distinguished from those that were phagocytosed. In many PMNs that had ingested a spermatozoon, the presence of the sperm nucleus or tail caused a conspicuous change of the shape of the PMN. Two hundred spermatozoa were evaluated and classified as inside or outside the PMN (i.e., phagocytosed or not phagocytosed). The same fixed mounts were used to assess the acrosome morphology of the non-phagocytosed spermatozoa at the moment of fixation.
# boar spermatozoa [2] = experiment: Sperm viability in vitro (motility, acrosome morphology), Example I; conditions: Exp. 1
# Description: Aliquots of 80 μl of the PMN suspension (see, PMN isolation and preparation of PMNs) in TM or TM-s, with either intact or inactivated complement, were transferred to a 96-well polystyrene microtest plate. To each well, 20 μl of sperm suspension (see, preparation of semen samples) was added and the microtest plate was placed in a humidified incubator at 38° C. with 5% CO2 in air. […] The samples were incubated with gentle swirling on a test plate shaker. After 15, 30, 45, 60 or 90 min., samples were quantitatively transferred into tubes containing an equal volume of 40 mg ml^−1 heparin (Sigma) in PBS. The heparin facilitates dissociation of agglutinated PMNs. The samples were thoroughly mixed, left for 15 min., and mixed again. Subsamples of 75 μl were fixed by addition of 25 μl of 2% (v/v) glutaraldehyde (Fluka, Brunschwig chemie, Amsterdam, The Netherlands) in PBS. “Blank” samples, i.e., sperm without PMNs (80 μl TM-s mixed with 20 μl sperm suspension), were incubated in parallel to monitor sperm survival during the treatment. “Reference” samples, i.e., frozen-thawed (killed) semen, were incubated in parallel with the PMNs as a reference for the phagocytotic activity of the PMNs. The frozen-thawed semen was taken from a large stock of semen from one ejaculate and washed 3 times in PBS prior to use.
# For evaluation of phagocytosis, wet mounts of the fixed samples were examined with a combination of phase-contrast and fluorescence microscopy (Olympus BH2, Tokyo, Japan) at 400× magnification. The mounts enabled observation and counting of fluorescently labeled spermatozoa inside and outside the phagocytes. By focusing at different levels in the mount, spermatozoa that were located above or below the PMN could be distinguished from those that were phagocytosed. […] Two hundred spermatozoa were evaluated and classified as inside or outside the PMN (i.e., phagocytosed or not phagocytosed). The same fixed mounts were used to assess the acrosome morphology of the non-phagocytosed spermatozoa at the moment of fixation. One hundred cells were classified using phase-contrast microscopy at 400× magnification, as NAR (normal apical ridge), NAR' (slightly altered normal apical ridge), DAR (damaged apical ridge), MAR (missing apical ridge) and LAC (loose acrosomal cap), as described by Pursel et al. (Pursel V G, Schulman L L and Johnson L A, 1978, Distribution and morphology of fresh and frozen-thawed sperm in the reproductive tract of gilts after insemination Biology of Reproduction 19 69-76.)
# boar spermatozoa [3] = experiment: as above; conditions: Exp. 1; after adding active compound and pre-incubation 30 min. at 38° C.
# [4] = after adding active compound and pre-incubation 30 min. at 38° C.
# [5] = blank samples without PMN, (2x), phagocytosis time 30 min.
# [6] = blank samples without PMN, preincubated 30 min. at 38° C., phagocytosis time 30 min.
compound,measurement,setting,value
"CCCC(=O)Nc1ncnc2c1ncn2[C@@H]1O[C@@H]2COP(=O)(O)O[C@H]2[C@H]1OC(=O)CCC [Db-cAMP, dibutyryl-cAMP]",% of phagocytosed sperm,"[1]; 0.1 mM, phagocytosis time 15 min",35%
same,% of phagocytosed sperm,"[1]; 0.1 mM, phagocytosis time 30 min",59%
same,% of phagocytosed sperm,"[1]; 0.1 mM, phagocytosis time 60 min",60%
same,% of phagocytosed sperm,"[1]; 0.1 mM, phagocytosis time 90 min",65%
same,% of phagocytosed sperm,"[1]; 0.2 mM, phagocytosis time 15 min",47%
same,% of phagocytosed sperm,"[1]; 0.2 mM, phagocytosis time 30 min",47%
same,% of phagocytosed sperm,"[1]; 0.2 mM, phagocytosis time 60 min",58%
same,% of phagocytosed sperm,"[1]; 0.2 mM, phagocytosis time 90 min",54%
same,% DAR,boar spermatozoa [2]; [4],23%
same,% LAC,boar spermatozoa [2]; [4],08%
same,% MAR,boar spermatozoa [2]; [4],02%
same,% NAR,boar spermatozoa [2]; [4],67%
same,% LAC,boar spermatozoa [2]; [5],08%
same,% MAR (second value of NAR-MAR-MAR-LAC),boar spermatozoa [2]; [5],36%
same,% MAR (third value of NAR-MAR-MAR-LAC),boar spermatozoa [2]; [5],02%
same,% NAR,boar spermatozoa [2]; [5],54%
same,% LAC,boar spermatozoa [2]; [6],06%
same,% MAR (second value of NAR-MAR-MAR-LAC),boar spermatozoa [2]; [6],36%
same,% MAR (third value of NAR-MAR-MAR-LAC),boar spermatozoa [2]; [6],02%
same,% NAR,boar spermatozoa [2]; [6],56%
same,% motile sperm,boar spermatozoa [3],60%
O=C(O)CN(CCN(CC(=O)O)CC(=O)O)CC(=O)O [EDTA],"phagocytosis of sperm by PMN in vitro, in words",[1],reduce phagocytosis of sperm in vitro
"Nc1ncnc2c1ncn2[C@@H]1O[C@@H]2COP(=O)(O)O[C@H]2[C@H]1O [cAMP, cyclic Adenosine MonoPhosphate]","phagocytosis of sperm by PMN in vitro, in words",[1],inhibits the phagocytosis of sperm in vitro
heparin,"phagocytosis of sperm by PMN in vitro, in words",[1],inhibited strongly
